From PMC10235986, “Probing differences among Aβ oligomers with two triangular trimers derived from Aβ” (Proceedings of the National Academy of Sciences of the …, 2023)

Experiments:
SH-SY5Y cells [1] = assay: Live-cell fluorescence microscopy of HL647-Aβ42 cellular interaction; assay type: cell-based, human; settings: 1 μM HL647-Aβ42, absence of 2AT and KLT, 16 h
Description: Fig. 7. The effects of 2AT and KLT on Aβ42 toxicity and cellular interaction (A–D). (A) LDH release assay (B) CellTiter-Glo ATP assay. (C) ApoLive-Glo cell viability assay. (D) ApoLive-Glo caspase-3/7 activation assay. The cell-based assays in A–D were performed by exposing SH-SY5Y cells to 6 μM Aβ42 in the presence of a twofold dilution series of 2AT and KLT for 72 h. All data from the assays are shown as the mean of three technical replicates, with error bars representing the SD. (E–I) Live-cell fluorescence micrographs of SH-SY5Y cells after treatment with 1 μM HiLyte™ Fluor 647-Aβ42 (HL647-Aβ42) in the presence of 0 μM trimer (E) or 2 μM and 4 μM 2AT (F and G) or 2 μM and 4 μM KLT (H and I) for 16 h; (Scale bars, 20 μm.) Fluorescence quantification (FQ), as determined by (total fluorescence of HL647Aβ42)/(total number of cells) is indicated on each micrograph. Dead cells were excluded from the fluorescence quantification analysis and are marked with a white “x”. […]
For these experiments, we exposed SH-SY5Y cells to 1 μM solutions of N-terminally labeled HiLyte™ Fluor 647-Aβ42 (HL647-Aβ42) containing 0 μM, 2 μM, or 4 μM 2AT or KLT and then used live-cell fluorescence microscopy to visualize and quantify HL647-Aβ42 fluorescence on the cells. […]

SH-SY5Y cells [2] = assay: Toxicity of Aβ42 alone (LDH release, ATP levels, caspase-3/7 activation, cell viability); assay type: cell-based, human
Text: To investigate the effect of 2AT and KLT on Aβ42 toxicity, we performed a series of cell-based toxicity experiments in which we examined four toxicity markers—LDH release, changes in ATP levels, caspase-3/7 activation, and cell viability—in SH-SY5Y cells exposed to Aβ42 in the absence or presence of 2AT and KLT. We first identified an Aβ42 concentration that elicits significant toxicity in the absence of 2AT and KLT by exposing SH-SY5Y cells to varying concentrations of Aβ42 and then performing the toxicity assays. The toxicity markers establish that Aβ42 elicits significant toxicity at 6 μM (SI Appendix, Fig. S8). […]
Detailed methods are provided in the Supporting Information. […] X-ray diffraction data for KLT and KLTI were collected on a Rigaku Micromax-007HF X-ray diffractometer with a rotating copper anode, and the X-ray crystallographic phases were determined using molecular replacement and SAD phasing. […] Live-cell fluorescence microscopy was performed on SH-SY5Y cells adhered to an Ibidi µ-Slide eight Well Chamber Slide. The cells were imaged using a Keyence BZ-X810 fluorescence microscope and analyzed using the Hybrid Cell Count application in the BZ-X810 Analyzer software. […]

| Substance | cellular localization / uptake of HL647-Aβ42 (SH-SY5Y cells [1]) | concentration that elicits significant toxicity (SH-SY5Y cells [2]) [µM] |
| --- | --- | --- |
| HL647-Aβ42: N-terminally labeled HiLyte Fluor 647-Aβ42 | accumulates as punctate features inside the cells |  |
| Aβ42: full-length β-amyloid peptide Aβ42 |  | 6 |
